What was measured:
[1] = tested on: vanZ1 (CD1240) transcription in 630Δerm; assay: vanZ1 expression by qRT-PCR during growth in antimicrobials; assay type: cell-based, Clostridioides difficile
C. difficile 630Δerm = assay: Minimum inhibitory concentration; assay type: cell-based, Clostridioides difficile; details: with or without LL-37 (Supl. Table 1)

Compound | increase of vanZ1 expression during growth in LL-37 [1] | teicoplanin MIC of 630Δerm whether or not LL-37 was present (C. difficile 630Δerm)
CC[C@H](C)[C@H](NC(=O)[C@H](CCCCN)NC(=O)[C@H](CCC(=O)O)NC(=O)[C@H](CCCCN)NC(=O)[C@H](CO)NC(=O)[C@H](CCCCN)NC(=O)[C@H](CCCNC(=N)N)NC(=O)[C@H](Cc1ccccc1)NC(=O)[C@H](Cc1ccccc1)NC(=O)[C@H](CC(=O)O)NC(=O)CNC(=O)[C@H](CC(C)C)NC(=O)[C@@H](N)CC(C)C)C(=O)NCC(=O)N[C@@H](CCCCN)C(=O)N[C@@H](CCC(=O)O)C(=O)N[C@@H](Cc1ccccc1)C(=O)N[C@@H](CCCCN)C(=O)N[C@@H](CCCNC(=N)N)C(=O)N[C@H](C(=O)N[C@H](C(=O)N[C@@H](CCC(N)=O)C(=O)N[C@@H](CCCNC(=N)N)C(=O)N[C@H](C(=O)N[C@@H](CCCCN)C(=O)N[C@@H](CC(=O)O)C(=O)N[C@@H](Cc1ccccc1)C(=O)N[C@@H](CC(C)C)C(=O)N[C@@H](CCCNC(=N)N)C(=O)N[C@@H](CC(N)=O)C(=O)N[C@@H](CC(C)C)C(=O)N[C@H](C(=O)N1CCC[C@H]1C(=O)N[C@@H](CCCNC(=N)N)C(=O)N[C@H](C(=O)N[C@@H](CCC(=O)O)C(=O)N[C@@H](CO)C(=O)O)[C@@H](C)O)C(C)C)[C@@H](C)CC)C(C)C)[C@@H](C)CC [LL-37] | ~ 37 fold | –
teicoplanin | – | remained unchanged
